Laboratory results from PubChem BioAssay (NCI).
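96-well plates; 48 h exposure; 5 concentrations. Endpoints by linear interpolation between flanking doses. Not reached: highest tested concentration assigned. GI50: concentration for 50% inhibition of growth. TGI denotes the concentration required for complete inhibition of growth.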

Key:
Assay in all cases: NCI tumour cell line growth inhibition, 48 h
NCI-H226 lung = test system: NCI-H226 lung
DU-145 prostate = test system: DU-145 prostate
HCT-15 colon = test system: HCT-15 colon
UACC-62 melanoma = test system: UACC-62 melanoma
SK-OV-3 ovarian = test system: SK-OV-3 ovarian
MCF7 breast = test system: MCF7 breast
OVCAR-5 ovarian = test system: OVCAR-5 ovarian
PC-3 prostate = test system: PC-3 prostate
NCI-H522 lung = test system: NCI-H522 lung
MDA-MB-231 breast = test system: MDA-MB-231 breast
UACC-257 melanoma = test system: UACC-257 melanoma
BT-549 breast = test system: BT-549 breast
SK-MEL-5 melanoma = test system: SK-MEL-5 melanoma
HCT-116 colon = test system: HCT-116 colon
A549 NSCLC = test system: A549 NSCLC
SF-295 CNS = test system: SF-295 CNS
NCI-H460 lung = test system: NCI-H460 lung
HCC-2998 colon = test system: HCC-2998 colon
OVCAR-3 ovarian = test system: OVCAR-3 ovarian
EKVX NSCLC = test system: EKVX NSCLC
U251 CNS = test system: U251 CNS
ACHN renal = test system: ACHN renal
SNB-75 CNS = test system: SNB-75 CNS
UO-31 renal = test system: UO-31 renal
HT29 colon = test system: HT29 colon
SK-MEL-28 melanoma = test system: SK-MEL-28 melanoma
SN12C renal = test system: SN12C renal
SW-620 colon = test system: SW-620 colon
TK-10 renal = test system: TK-10 renal
SF-268 CNS = test system: SF-268 CNS
A498 renal = test system: A498 renal
T-47D breast = test system: T-47D breast
HOP-92 NSCLC = test system: HOP-92 NSCLC
OVCAR-4 ovarian = test system: OVCAR-4 ovarian
KM12 colon = test system: KM12 colon
RXF 393 renal = test system: RXF 393 renal
MDA-MB-435 = test system: MDA-MB-435
SK-MEL-2 melanoma = test system: SK-MEL-2 melanoma
M14 melanoma = test system: M14 melanoma
RPMI-8226 leukemia = test system: RPMI-8226 leukemia
786-0 renal = test system: 786-0 renal
NCI-H23 lung = test system: NCI-H23 lung
HS 578T breast = test system: HS 578T breast
CAKI-1 renal = test system: CAKI-1 renal
NCI/ADR-RES ovarian = test system: NCI/ADR-RES ovarian
K-562 leukemia = test system: K-562 leukemia
HOP-62 NSCLC = test system: HOP-62 NSCLC
LOX IMVI melanoma = test system: LOX IMVI melanoma
COLO 205 colon = test system: COLO 205 colon
SNB-19 CNS = test system: SNB-19 CNS
OVCAR-8 ovarian = test system: OVCAR-8 ovarian
MALME-3M melanoma = test system: MALME-3M melanoma
IGROV1 ovarian = test system: IGROV1 ovarian
SF-539 CNS = test system: SF-539 CNS

CN1CCN(CCCOc2ccc3nc(Nc4cc(Cl)cc(Cl)c4)ccc3c2)CC1
GI50 (NCI-H226 lung): 2.14 µM | TGI (NCI-H226 lung): 5.68 µM | GI50 (DU-145 prostate): 1.57 µM | TGI (DU-145 prostate): 3.07 µM | GI50 (HCT-15 colon): 0.677 µM | TGI (HCT-15 colon): 2.11 µM | GI50 (UACC-62 melanoma): 1.81 µM | TGI (UACC-62 melanoma): 3.76 µM | GI50 (SK-OV-3 ovarian): 2 µM | TGI (SK-OV-3 ovarian): 3.69 µM | GI50 (MCF7 breast): 1.48 µM | TGI (MCF7 breast): 3.05 µM | GI50 (OVCAR-5 ovarian): 1.71 µM | TGI (OVCAR-5 ovarian): 3.35 µM | GI50 (PC-3 prostate): 1.93 µM | TGI (PC-3 prostate): 3.71 µM | GI50 (NCI-H522 lung): 2.06 µM | TGI (NCI-H522 lung): 3.74 µM | GI50 (MDA-MB-231 breast): 1.56 µM | TGI (MDA-MB-231 breast): 3.31 µM | GI50 (UACC-257 melanoma): 2.13 µM | TGI (UACC-257 melanoma): 3.85 µM | GI50 (BT-549 breast): 1.9 µM | TGI (BT-549 breast): 3.58 µM | GI50 (SK-MEL-5 melanoma): 1.76 µM | TGI (SK-MEL-5 melanoma): 3.31 µM | GI50 (HCT-116 colon): 1.58 µM | TGI (HCT-116 colon): 2.98 µM | GI50 (A549 NSCLC): 2.11 µM | TGI (A549 NSCLC): 3.8 µM | GI50 (SF-295 CNS): 1.41 µM | TGI (SF-295 CNS): 2.89 µM | GI50 (NCI-H460 lung): 1.54 µM | TGI (NCI-H460 lung): 3.18 µM | GI50 (HCC-2998 colon): 1.54 µM | TGI (HCC-2998 colon): 3.06 µM | GI50 (OVCAR-3 ovarian): 1.56 µM | TGI (OVCAR-3 ovarian): 3.22 µM | GI50 (EKVX NSCLC): 1.63 µM | TGI (EKVX NSCLC): 3.38 µM | GI50 (U251 CNS): 1.61 µM | TGI (U251 CNS): 3.13 µM | GI50 (ACHN renal): 1.51 µM | TGI (ACHN renal): 2.9 µM | GI50 (SNB-75 CNS): 1.11 µM | TGI (SNB-75 CNS): 2.56 µM | GI50 (UO-31 renal): 1.58 µM | TGI (UO-31 renal): 3.24 µM | GI50 (HT29 colon): 0.548 µM | TGI (HT29 colon): 1.84 µM | GI50 (SK-MEL-28 melanoma): 1.63 µM | TGI (SK-MEL-28 melanoma): 3.21 µM | GI50 (SN12C renal): 1.81 µM | TGI (SN12C renal): 3.77 µM | GI50 (SW-620 colon): 1.68 µM | TGI (SW-620 colon): 3.46 µM | GI50 (TK-10 renal): 2.33 µM | TGI (TK-10 renal): 3.92 µM | GI50 (SF-268 CNS): 1.48 µM | TGI (SF-268 CNS): 3.02 µM | GI50 (A498 renal): 1.8 µM | TGI (A498 renal): 3.22 µM | GI50 (T-47D breast): 1.99 µM | TGI (T-47D breast): 4.39 µM | GI50 (HOP-92 NSCLC): 1.46 µM | TGI (HOP-92 NSCLC): 3.2 µM | GI50 (OVCAR-4 ovarian): 1.79 µM | TGI (OVCAR-4 ovarian): 5.65 µM | GI50 (KM12 colon): 1.53 µM | TGI (KM12 colon): 2.99 µM | GI50 (RXF 393 renal): 1.33 µM | TGI (RXF 393 renal): 2.93 µM | GI50 (MDA-MB-435): 1.5 µM | TGI (MDA-MB-435): 2.94 µM | GI50 (SK-MEL-2 melanoma): 2.03 µM | TGI (SK-MEL-2 melanoma): 4.04 µM | GI50 (M14 melanoma): 1.5 µM | TGI (M14 melanoma): 3.08 µM | GI50 (RPMI-8226 leukemia): 2.16 µM | TGI (RPMI-8226 leukemia): 4.78 µM | GI50 (786-0 renal): 1.58 µM | TGI (786-0 renal): 3.08 µM | GI50 (NCI-H23 lung): 1.63 µM | TGI (NCI-H23 lung): 3.54 µM | GI50 (HS 578T breast): 1.87 µM | TGI (HS 578T breast): 5.24 µM | GI50 (CAKI-1 renal): 1.82 µM | TGI (CAKI-1 renal): 3.72 µM | GI50 (NCI/ADR-RES ovarian): 1.99 µM | TGI (NCI/ADR-RES ovarian): 5.78 µM

O=C(O)CNC(=O)C(CS)Cc1ccccc1 (centres undefined)
GI50 (NCI-H226 lung): > 25 µM | TGI (NCI-H226 lung): > 25 µM | GI50 (DU-145 prostate): > 25 µM | TGI (DU-145 prostate): > 25 µM | GI50 (HCT-15 colon): > 25 µM | TGI (HCT-15 colon): > 25 µM | GI50 (UACC-62 melanoma): > 25 µM | TGI (UACC-62 melanoma): > 25 µM | GI50 (SK-OV-3 ovarian): > 25 µM | TGI (SK-OV-3 ovarian): > 25 µM | GI50 (K-562 leukemia): > 25 µM | TGI (K-562 leukemia): > 25 µM | GI50 (MCF7 breast): > 25 µM | TGI (MCF7 breast): > 25 µM | GI50 (OVCAR-5 ovarian): > 25 µM | TGI (OVCAR-5 ovarian): > 25 µM | GI50 (PC-3 prostate): > 25 µM | TGI (PC-3 prostate): > 25 µM | GI50 (NCI-H522 lung): > 25 µM | TGI (NCI-H522 lung): > 25 µM | GI50 (MDA-MB-231 breast): > 25 µM | TGI (MDA-MB-231 breast): > 25 µM | GI50 (HOP-62 NSCLC): > 25 µM | TGI (HOP-62 NSCLC): > 25 µM | GI50 (LOX IMVI melanoma): > 25 µM | TGI (LOX IMVI melanoma): > 25 µM | GI50 (UACC-257 melanoma): > 25 µM | TGI (UACC-257 melanoma): > 25 µM | GI50 (BT-549 breast): > 25 µM | TGI (BT-549 breast): > 25 µM | GI50 (SK-MEL-5 melanoma): > 25 µM | TGI (SK-MEL-5 melanoma): > 25 µM | GI50 (HCT-116 colon): > 25 µM | TGI (HCT-116 colon): > 25 µM | GI50 (A549 NSCLC): > 25 µM | TGI (A549 NSCLC): > 25 µM | GI50 (SF-295 CNS): > 25 µM | TGI (SF-295 CNS): > 25 µM | GI50 (NCI-H460 lung): > 25 µM | TGI (NCI-H460 lung): > 25 µM | GI50 (COLO 205 colon): > 25 µM | TGI (COLO 205 colon): > 25 µM | GI50 (HCC-2998 colon): > 25 µM | TGI (HCC-2998 colon): > 25 µM | GI50 (OVCAR-3 ovarian): > 25 µM | TGI (OVCAR-3 ovarian): > 25 µM | GI50 (SNB-19 CNS): > 25 µM | TGI (SNB-19 CNS): > 25 µM | GI50 (EKVX NSCLC): > 25 µM | TGI (EKVX NSCLC): > 25 µM | GI50 (U251 CNS): > 25 µM | TGI (U251 CNS): > 25 µM | GI50 (ACHN renal): > 25 µM | TGI (ACHN renal): > 25 µM | GI50 (SNB-75 CNS): > 25 µM | TGI (SNB-75 CNS): > 25 µM | GI50 (UO-31 renal): > 25 µM | TGI (UO-31 renal): > 25 µM | GI50 (HT29 colon): > 25 µM | TGI (HT29 colon): > 25 µM | GI50 (SK-MEL-28 melanoma): > 25 µM | TGI (SK-MEL-28 melanoma): > 25 µM | GI50 (SN12C renal): > 25 µM | TGI (SN12C renal): > 25 µM | GI50 (SW-620 colon): > 25 µM | TGI (SW-620 colon): > 25 µM | GI50 (TK-10 renal): > 25 µM | TGI (TK-10 renal): > 25 µM | GI50 (SF-268 CNS): > 25 µM | TGI (SF-268 CNS): > 25 µM | GI50 (A498 renal): > 25 µM | TGI (A498 renal): > 25 µM | GI50 (OVCAR-8 ovarian): > 25 µM | TGI (OVCAR-8 ovarian): > 25 µM | GI50 (T-47D breast): > 25 µM | TGI (T-47D breast): > 25 µM | GI50 (OVCAR-4 ovarian): > 25 µM | TGI (OVCAR-4 ovarian): > 25 µM | GI50 (KM12 colon): > 25 µM | TGI (KM12 colon): > 25 µM | GI50 (RXF 393 renal): 0.79 µM | TGI (RXF 393 renal): > 25 µM | GI50 (MDA-MB-435): > 25 µM | TGI (MDA-MB-435): > 25 µM | GI50 (SK-MEL-2 melanoma): > 25 µM | TGI (SK-MEL-2 melanoma): > 25 µM | GI50 (MALME-3M melanoma): > 25 µM | TGI (MALME-3M melanoma): > 25 µM | GI50 (IGROV1 ovarian): > 25 µM | TGI (IGROV1 ovarian): > 25 µM | GI50 (SF-539 CNS): > 25 µM | TGI (SF-539 CNS): > 25 µM | GI50 (M14 melanoma): > 25 µM | TGI (M14 melanoma): > 25 µM | GI50 (786-0 renal): > 25 µM | TGI (786-0 renal): > 25 µM | GI50 (NCI-H23 lung): > 25 µM | TGI (NCI-H23 lung): > 25 µM | GI50 (HS 578T breast): > 25 µM | TGI (HS 578T breast): > 25 µM | GI50 (CAKI-1 renal): > 25 µM | TGI (CAKI-1 renal): > 25 µM | GI50 (NCI/ADR-RES ovarian): > 25 µM | TGI (NCI/ADR-RES ovarian): > 25 µM
